Data as given in patent publication US20260022142A1, “MACROCYCLIC IMMUNOMODULATORS” (Bristol-Myers Squibb Company, priority 2022, published 2026).
pIC50: −log10 of the molar value. Numbered stars: 1 amine (or outer) side, 2 acyl side, 3 side chain; on linkers, the order of the positions; unused ones are H or OH. Bridge positions count the residues as written; N and C are the ends. Square brackets hold non-standard residues; d marks the D form. Peptide text beside a SMILES is read from it. * marks the point of attachment. ξ: configuration not given here. Phe(3-CF3) = N[C@@H](Cc1cccc(C(F)(F)F)c1)C(=O)O; Phe(4-COOH) = N[C@@H](Cc1ccc(C(=O)O)cc1)C(=O)O; Bip = N[C@@H](Cc1ccc(-c2ccccc2)cc1)C(=O)O; NH(CH2)14COOH = O=C(O)CCCCCCCCCCCCCCN*; Phe(3-Me) = Cc1cccc(C[C@H](N)C(=O)O)c1; Phe(4-F) = N[C@@H](Cc1ccc(F)cc1)C(=O)O; βAsp = O=C(O)[C@H](CC(=O)[*:2])N[*:1]; ξBip = NC(Cc1ccc(-c2ccccc2)cc1)C(=O)O; NH(CH2)12COOH = O=C(O)CCCCCCCCCCCCN*; PEG6 = NCCOCCOCCOCCOCCOCCOCCC(=O)O; Val(3-OH) = CC(C)(O)[C@H](N)C(=O)O; mTyr = N[C@@H](Cc1cccc(O)c1)C(=O)O; 4Pal = N[C@@H](Cc1ccncc1)C(=O)O; Cha = N[C@@H](CC1CCCCC1)C(=O)O; Cit = NC(=O)NCCC[C@H](N)C(=O)O; aThr = C[C@H](O)[C@H](N)C(=O)O; Thr(3ξ) = CC(O)[C@H](N)C(=O)O; 4Abz = Nc1ccc(C(=O)O)cc1; Carboxymethyl = O=C(O)C*; Orn = NCCC[C@H](N)C(=O)O; Aun = NCCCCCCCCCCC(=O)O; Dab = NCC[C@H](N)C(=O)O; Abu = CC[C@H](N)C(=O)O; Dap = NC[C@H](N)C(=O)O; ξD = NC(CC(=O)O)C(=O)O; AEEA = NCCOCCOCC(=O)O; Ac3c = NC1(C(=O)O)CC1

The compounds below were run against T1, PD-1/PD-L1 interaction (PE-labeled human PD-L1-Ig binding to Jurkat cell line over-expressing human PD-1) (Homo sapiens, UniProt Q15116) (assay: Jurkat-PD-1 Cell Binding High-Content Screening Assay (CBA)). Conditions: Jurkat cell line over-expressing human PD-1; PE-labeled PD-L1-Ig 20 nM final; read-out: Jurkat hPD1-PDL1 IC50.
T1 construct: expressed in transfected cells; host or cells: Jurkat
T1 sequence (Q15116 25-288): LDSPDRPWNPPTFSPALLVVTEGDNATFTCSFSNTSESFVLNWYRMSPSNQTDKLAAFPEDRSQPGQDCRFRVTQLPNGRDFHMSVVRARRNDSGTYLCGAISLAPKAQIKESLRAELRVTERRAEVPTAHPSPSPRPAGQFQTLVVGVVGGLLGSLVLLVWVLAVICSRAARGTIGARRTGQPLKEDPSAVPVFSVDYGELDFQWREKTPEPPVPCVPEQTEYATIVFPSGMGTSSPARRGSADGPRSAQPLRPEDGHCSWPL
Assay type: cell-based
Summary of the method: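 Human PD-L1-Ig carrying a covalent PE label on its Ig tag serves as the probe, applied at 20 nM final to compound-treated (2 h, 37° C) Jurkat-hPD-1 cells in medium with 10% fetal calf serum. After one hour, fixation and nuclear staining precede high-content image analysis.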

| Compound | pIC50 |
| --- | --- |
| Cc1cccc(C[C@@H]2NC(=O)[C@H](CC(=O)O)NC(=O)[C@H](Cc3ccc(OCC(=O)O)cc3)NC(=O)[C@H](CN)NC(=O)CSC[C@@H](C(=O)NC3(C(=O)N[C@@H](CCCN)C(=O)N[C@H](CO)C(=O)NCCCCCCCCCCC(=O)O)CC3)NC(=O)[C@H]([C@@H](C)O)NC(=O)[C@H](C(C)C)NC(=O)[C@H](CC3CCCCC3)NC(=O)[C@H](CCN)NC(=O)[C@@H](CC(C)C)NC(=O)[C@H](CCCN)NC(=O)[C@H](CCCNC(N)=O)NC(=O)[C@H](Cc3ccc(-c4ccccc4)cc3)NC(=O)[C@H](C(C)C)NC2=O)c1 [Compound 2015] ({CH2CO}-[Dap]Y(Carboxymethyl)D[Phe(3-Me)]V[Bip][Cit][Orn][dL][Dab][Cha]VTC[Ac3c][Orn][dS][Aun]-OH; thioether N-14) | 7.70 |
| CC(C)C[C@@H]1NC(=O)[C@H](Cc2c[nH]c3ccccc23)NC(=O)[C@H](CC(=O)O)NC(=O)[C@H](Cc2ccncc2)NC(=O)[C@H](Cc2ccc(OCC(=O)O)cc2)NC(=O)CSC[C@@H](C(=O)Nc2ccc(C(=O)NCCCCCCCCCCC(=O)O)cc2)NC(=O)[C@H](CCCN)NC(=O)[C@H](C(C)C)NC(=O)[C@H](CC2CCCCC2)NC(=O)[C@H](CCN)NC(=O)[C@@H](CC(C)C)NC(=O)[C@H](CCCN)NC(=O)[C@H](C(C)C)NC(=O)[C@H](Cc2ccc(-c3ccccc3)cc2)NC1=O [Compound 1226] ({CH2CO}-Y(Carboxymethyl)[4Pal]DWL[Bip]V[Orn][dL][Dab][Cha]V[Orn]C[4Abz][Aun]-OH; thioether N-14) | 6.56 |
| Cc1cccc(C[C@@H]2NC(=O)C(CC(=O)O)NC(=O)[C@H](Cc3ccc(OCC(=O)O)cc3)NC(=O)[C@H](CN)NC(=O)CSC[C@@H](C(=O)N[C@@H](Cc3cnc[nH]3)C(=O)NCCCCCCCCCCC(=O)O)NC(=O)[C@H]([C@@H](C)O)NC(=O)[C@H](C(C)C)NC(=O)[C@H](CC3CCCCC3)NC(=O)[C@H](CCN)NC(=O)[C@@H](CC(C)C)NC(=O)[C@H](CCCN)NC(=O)[C@H](CCCNC(N)=O)NC(=O)C(Cc3ccc(-c4ccccc4)cc3)NC(=O)[C@H](C(C)C)NC2=O)c1 (stereo partly drawn) [Compound 1175] ({CH2CO}-[Dap]Y(Carboxymethyl)[ξD][Phe(3-Me)]V[ξBip][Cit][Orn][dL][Dab][Cha]VTCH[Aun]-OH; thioether N-14) | 7.70 |
| CC(C)C[C@H]1NC(=O)[C@H](CCCN)NC(=O)[C@H](C(C)C)NC(=O)[C@H](Cc2ccc(-c3ccccc3)cc2)NC(=O)[C@H](C(C)C)NC(=O)[C@H](Cc2cccc(O)c2)NC(=O)[C@H](CC(=O)O)NC(=O)[C@H](Cc2ccc(OCC(=O)O)cc2)NC(=O)[C@H](CN)NC(=O)CSC[C@@H](C(=O)N[C@@H](CCN)C(=O)NCCCCCCCCCCC(=O)O)NC(=O)[C@H](CCCCN)NC(=O)[C@H](C(C)C)NC(=O)[C@H](CC2CCCCC2)NC(=O)[C@H](CCN)NC1=O [Compound 2029] ({CH2CO}-[Dap]Y(Carboxymethyl)D[mTyr]V[Bip]V[Orn][dL][Dab][Cha]VKC[Dab][Aun]-OH; thioether N-14) | 8.10 |
| Cc1cccc(C[C@@H]2NC(=O)[C@H](CC(=O)O)NC(=O)[C@H](Cc3ccc(OCC(=O)O)cc3)NC(=O)[C@H](CCCN)NC(=O)CSC[C@@H](C(=O)N[C@@H](CCN)C(=O)NCCCCCCCCCCC(=O)O)NC(=O)[C@H](CO)NC(=O)[C@H](C(C)(C)O)NC(=O)[C@H](CC3CCCCC3)NC(=O)[C@H](CCN)NC(=O)[C@@H](CC(C)C)NC(=O)[C@H](CCCN)NC(=O)[C@H](Cc3ccc(OCC(=O)O)cc3)NC(=O)[C@H](Cc3ccc(-c4ccccc4)cc3)NC(=O)[C@H](Cc3ccc(OCC(=O)O)cc3)NC2=O)c1 [Compound 2212] ({CH2CO}-[Orn]Y(Carboxymethyl)D[Phe(3-Me)]Y(Carboxymethyl)[Bip]Y(Carboxymethyl)[Orn][dL][Dab][Cha][Val(3-OH)]SC[Dab][Aun]-OH; thioether N-14) | 8.00 |
| Cc1cccc(C[C@@H]2NC(=O)[C@H](CC(=O)O)NC(=O)[C@H](Cc3ccc(OCC(=O)O)cc3)NC(=O)[C@H](CN)NC(=O)CSC[C@@H](C(=O)NCCOCCOCC(=O)NCCCCCCCCCCC(=O)O)NC(=O)[C@H](CN)NC(=O)[C@H](C(C)C)NC(=O)[C@H](CC3CCCCC3)NC(=O)[C@H](CCN)NC(=O)[C@@H](CC(C)C)NC(=O)[C@H](CCCN)NC(=O)[C@H](CCC(=O)O)NC(=O)[C@H](Cc3ccc(-c4ccccc4)cc3)NC(=O)[C@H](C(C)C)NC2=O)c1 [Compound 2666] ({CH2CO}-[Dap]Y(Carboxymethyl)D[Phe(3-Me)]V[Bip]E[Orn][dL][Dab][Cha]V[Dap]C[AEEA][Aun]-OH; thioether N-14) | 7.74 |

Second part, the compound after the results:

| pIC50 | Compound |
| --- | --- |
| 7.35 | CC(C)C[C@H]1NC(=O)[C@H](CCCN)NC(=O)[C@H](Cc2ccc(O)cc2)NC(=O)[C@H](Cc2ccc(-c3ccccc3)cc2)NC(=O)[C@H](C(C)C)NC(=O)[C@H](Cc2c[nH]c3ccccc23)NC(=O)[C@H](CC(=O)O)NC(=O)[C@H](Cc2ccc(OCC(=O)O)cc2)NC(=O)[C@H](CN)NC(=O)CSC[C@@H](C(=O)N[C@@H](CCN)C(=O)NCCCCCCCCCCC(=O)O)NC(=O)[C@H](CN)NC(=O)[C@H](C(C)O)NC(=O)[C@H](CC2CCCCC2)NC(=O)[C@H](CCN)NC1=O (stereo partly drawn) [Compound 3654] ({CH2CO}-[Dap]Y(Carboxymethyl)DWV[Bip]Y[Orn][dL][Dab][Cha][Thr(3ξ)][Dap]C[Dab][Aun]-OH; thioether N-14) |
| 7.58 | CC[C@@H]1NC(=O)CSC[C@@H](C(=O)N[C@@H](CCN)C(=O)NCCOCCOCC(=O)N[C@@H](CC(=O)NCCOCCOCC(=O)NCCCCCCCCCCCCC(=O)O)C(=O)O)NC(=O)[C@H](CO)NC(=O)[C@H](C(C)(C)O)NC(=O)[C@H](CC2CCCCC2)NC(=O)[C@H](CCN)NC(=O)[C@@H](CC(C)C)NC(=O)[C@H](CCCN)NC(=O)[C@H](Cc2ccc(C(=O)O)cc2)NC(=O)[C@H](Cc2ccc(-c3ccccc3)cc2)NC(=O)[C@H](Cc2ccc(C(=O)O)cc2)NC(=O)[C@H](Cc2cccc(C(F)(F)F)c2)NC(=O)[C@H](CC(=O)O)NC(=O)[C@H](Cc2ccc(OCC(=O)O)cc2)NC1=O [Compound 2933] ({CH2CO}-[Abu]Y(Carboxymethyl)D[Phe(3-CF3)][Phe(4-COOH)][Bip][Phe(4-COOH)][Orn][dL][Dab][Cha][Val(3-OH)]SC[Dab][AEEA][βAsp][AEEA]-{NH(CH2)12COOH}; thioether N-14) |
| 7.34 | CC(C)C[C@H]1NC(=O)[C@H](CCCN)NC(=O)[C@H](Cc2ccc(OCC(=O)O)cc2)NC(=O)[C@H](Cc2ccc(-c3ccccc3)cc2)NC(=O)[C@H](Cc2ccc(OCC(=O)O)cc2)NC(=O)[C@H](Cc2cccc(C(F)(F)F)c2)NC(=O)[C@H](CC(=O)O)NC(=O)[C@H](Cc2ccc(OCC(=O)O)cc2)NC(=O)[C@H](Cc2cnc[nH]2)NC(=O)CSC[C@@H](C(=O)N[C@@H](CCN)C(=O)NCCCCCCCCCCCCC(=O)O)NC(=O)[C@H](CO)NC(=O)[C@H](C(C)(C)O)NC(=O)[C@H](CC2CCCCC2)NC(=O)[C@H](CCN)NC1=O [Compound 3836] ({CH2CO}-HY(Carboxymethyl)D[Phe(3-CF3)]Y(Carboxymethyl)[Bip]Y(Carboxymethyl)[Orn][dL][Dab][Cha][Val(3-OH)]SC[Dab]-{NH(CH2)12COOH}; thioether N-14) |
| 7.81 | Cc1cccc(C[C@@H]2NC(=O)[C@H](CC(=O)O)NC(=O)[C@H](Cc3ccc(OCC(=O)O)cc3)NC(=O)[C@H](CCCNC(=N)N)NC(=O)CSC[C@@H](C(=O)N[C@@H](CCCCN)C(=O)NCCCCCCCCCCC(=O)O)NC(=O)[C@H](CN)NC(=O)[C@H](C(C)C)NC(=O)[C@H](CC3CCCCC3)NC(=O)[C@H](CCN)NC(=O)[C@@H](CC(C)C)NC(=O)[C@H](CCN)NC(=O)[C@H](CCCNC(N)=O)NC(=O)[C@H](Cc3ccc(-c4ccccc4)cc3)NC(=O)[C@H](C(C)C)NC2=O)c1 [Compound 2802] ({CH2CO}-RY(Carboxymethyl)D[Phe(3-Me)]V[Bip][Cit][Dab][dL][Dab][Cha]V[Dap]CK[Aun]-OH; thioether N-14) |
| 6.60 | CC(C)C[C@H]1NC(=O)[C@H](CCCN)NC(=O)[C@H](Cc2ccc(OCC(=O)O)cc2)NC(=O)[C@H](Cc2ccc(-c3ccccc3)cc2)NC(=O)[C@H](Cc2ccc(C(=O)O)cc2)NC(=O)[C@H](Cc2cccc(C(F)(F)F)c2)NC(=O)[C@H](CC(=O)O)NC(=O)[C@H](Cc2ccc(OCC(=O)O)cc2)NC(=O)[C@H]([C@H](C)O)NC(=O)CSC[C@@H](C(=O)N[C@@H](CCN)C(=O)NCCOCCOCCOCCOCCOCCOCCC(=O)NCCCCCCCCCCCCCCC(=O)O)NC(=O)[C@H](CCC(=O)O)NC(=O)[C@H](C(C)C)NC(=O)[C@H](CC2CCCCC2)NC(=O)[C@H](CCN)NC1=O [Compound 3912] ({CH2CO}-[aThr]Y(Carboxymethyl)D[Phe(3-CF3)][Phe(4-COOH)][Bip]Y(Carboxymethyl)[Orn][dL][Dab][Cha]VEC[Dab][PEG6]-{NH(CH2)14COOH}; thioether N-14) |
| 8.02 | Cc1cccc(C[C@@H]2NC(=O)[C@H](CC(=O)O)NC(=O)[C@H](Cc3ccc(OCC(=O)O)cc3)NC(=O)[C@H](Cc3ccc(F)cc3)NC(=O)CSC[C@@H](C(=O)N[C@@H](CCN)C(=O)NCCOCCOCC(=O)NCCOCCOCC(=O)NCCCCCCCCCCC(=O)O)NC(=O)[C@H](Cc3cnc[nH]3)NC(=O)[C@H](C(C)(C)O)NC(=O)[C@H](CC3CCCCC3)NC(=O)[C@H](CCN)NC(=O)[C@@H](CC(C)C)NC(=O)[C@H](CCCN)NC(=O)[C@H](Cc3ccc(C(=O)O)cc3)NC(=O)[C@H](Cc3ccc(-c4ccccc4)cc3)NC(=O)[C@H](Cc3ccc(C(=O)O)cc3)NC2=O)c1 [Compound 3767] ({CH2CO}-[Phe(4-F)]Y(Carboxymethyl)D[Phe(3-Me)][Phe(4-COOH)][Bip][Phe(4-COOH)][Orn][dL][Dab][Cha][Val(3-OH)]HC[Dab][AEEA][AEEA][Aun]-OH; thioether N-14) |
